Assay results published in ChEMBL document CHEMBL4354883, “Design, Synthesis, and Biological Evaluation of HSP90 Inhibitor-SN38 Conjugates for Targeted Drug Accumulation” (J Med Chem, 2020).
Activity calls are given as the source filed them. No cut-off for these calls is given here.

Tests used:
Heat shock protein HSP90 [1] = target: T1, Heat shock protein HSP90 (Homo sapiens, UniProt P07900+P08238); test: Inhibition of HSP90 in human A549 cells assessed as downregulation of AKT protein expression after 24 hrs by Western blot analysis; type: cell-based
[2] = target: T2, DNA topoisomerase 1 (Homo sapiens) (UniProt P11387); test: Inhibition of topoisomerase 1 in human HCT116 cells assessed as increase in phosphorylated KAP1 expression at 0.2 to 5 uM after 24 hrs by Western blot analysis; type: cell-based
T2 sequence (whole entry): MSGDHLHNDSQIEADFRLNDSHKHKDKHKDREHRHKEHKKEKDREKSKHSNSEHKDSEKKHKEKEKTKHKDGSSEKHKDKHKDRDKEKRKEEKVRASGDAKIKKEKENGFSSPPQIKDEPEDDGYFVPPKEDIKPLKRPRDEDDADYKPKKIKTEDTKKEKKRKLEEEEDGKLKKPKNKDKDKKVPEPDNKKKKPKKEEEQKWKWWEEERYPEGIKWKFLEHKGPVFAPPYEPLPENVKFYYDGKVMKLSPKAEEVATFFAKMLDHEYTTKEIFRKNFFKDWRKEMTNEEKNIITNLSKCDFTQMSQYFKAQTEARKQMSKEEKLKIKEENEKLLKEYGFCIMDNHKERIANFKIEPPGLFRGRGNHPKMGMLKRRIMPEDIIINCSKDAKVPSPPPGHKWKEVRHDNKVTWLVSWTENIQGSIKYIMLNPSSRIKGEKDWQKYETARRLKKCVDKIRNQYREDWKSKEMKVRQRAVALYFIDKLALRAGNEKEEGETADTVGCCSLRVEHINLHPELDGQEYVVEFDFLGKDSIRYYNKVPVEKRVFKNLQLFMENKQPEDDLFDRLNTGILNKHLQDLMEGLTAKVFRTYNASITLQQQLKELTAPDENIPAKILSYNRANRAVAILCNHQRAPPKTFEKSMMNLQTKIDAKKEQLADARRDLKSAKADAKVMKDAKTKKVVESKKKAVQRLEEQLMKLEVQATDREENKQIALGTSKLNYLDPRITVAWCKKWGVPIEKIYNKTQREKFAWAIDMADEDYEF

[3] = Toxicity in mouse xenografted with human Capan1 cells assessed as increase in body weight at 50 mg/kg, iv for every 2 days; type: organism-based; conditions: in vivo, 48 h
[4] = Prodrug release in mouse plasma xenografted with human Capan1 cells assessed as increase in 7-ethyl-10-hydroxycamptothecin level at 50 mg/kg, iv after 30 mins to 72 hrs by LC-MS/MS analysis; type: ADME, organism-based; conditions: in vivo
CAPAN-1 [5] = test: Antitumor activity against human Capan1 cells xenografted in mouse assessed as reduction in tumor volume at 50 mg/kg, iv for every 2 days and measured twice per week by microcaliper method relative to control; type: functional
[6] = Drug uptake in mouse plasma xenografted with human HCT116 cells assessed as increase in drug level with longer half life at 50 mg/kg, iv administered as single dose and measured after 30 mins to 72 hrs by LC-MS/MS analysis; type: ADME, organism-based; conditions: in vivo
[7] = Stability of compound in PBS buffer assessed as drug degradation at 50 uM at pH 7.4 measured after 12 hrs by HPLC analysis; type: physicochemical; conditions: read-out: Drug degradation
Heat shock protein HSP90 [8] = target: T1, Heat shock protein HSP90; test: Inhibition of HSP90 in human A549 cells assessed as upregulation of HSP70 expression at 0.008 to 1 uM after 24 hrs by Western blot analysis; type: cell-based
[9] = target: T2, DNA topoisomerase 1 (Homo sapiens); test: Inhibition of topoisomerase 1 in human A549 cells assessed as increase in phosphorylated KAP1 expression after 24 hrs by Western blot analysis; type: cell-based
Mus musculus [10] = test: In vivo inhibition of HSP90 in mouse xenografted with human Capan1 cells assessed as decrease in AKT protein expression at 50 mg/kg, iv for every 2 days measured at 2 hrs post last dose by Western blot analysis; type: functional, organism-based
Heat shock protein HSP90 [11] = target: T1, Heat shock protein HSP90; test: Inhibition of HSP90 in human A549 cells assessed as downregulation of Akt expression at 0.008 to 1 uM after 24 hrs by Western blot analysis; type: cell-based
[12] = Toxicity in heart of mouse xenografted with human Capan1 cells assessed as pathological changes at 50 mg/kg, iv for every 2 days measured at 2 hrs post last dose by H and E staining based analysis; type: organism-based; conditions: in vivo
[13] = Drug uptake in tumor of mouse xenografted with human Capan1 cells assessed as retention time of the compound at 50 mg/kg, iv by LC-MS/MS analysis; type: ADME, organism-based, Neoplasm; conditions: in vivo
[14] = Toxicity in kidney of mouse xenografted with human Capan1 cells assessed as pathological changes at 50 mg/kg, iv for every 2 days measured at 2 hrs post last dose by H and E staining based analysis; type: organism-based; conditions: in vivo
[15] = Drug uptake in human HL7702 cells in PBS solution at 5 uM after 6 hrs by confocal laser scanning microscopic analysis; type: ADME, cell-based; conditions: l02, 6 h
CAPAN-1 [16] = test: Antitumor activity against human Capan1 cells xenografted in mouse assessed as reduction in tumor weight at 50 mg/kg, iv for every 2 days and measured twice per week by caliper method; type: functional, organism-based
[17] = Toxicity in spleen of mouse xenografted with human Capan1 cells assessed as pathological changes at 50 mg/kg, iv for every 2 days measured at 2 hrs post last dose by H and E staining based analysis; type: organism-based; conditions: in vivo
Heat shock protein HSP90 [18] = target: T1, Heat shock protein HSP90; test: Inhibition of HSP90 in human HCT116 cells assessed as upregulation of HSP70 expression at 0.008 to 1 uM after 24 hrs by Western blot analysis; type: cell-based
Mus musculus [19] = test: In vivo inhibition of HSP90 in mouse xenografted with human Capan1 cells assessed as increase in HSP70 protein expression at 50 mg/kg, iv for every 2 days measured at 2 hrs post last dose by Western blot analysis; type: functional, organism-based
[20] = target: T2, DNA topoisomerase 1 (Homo sapiens); test: Inhibition of topoisomerase 1 in human HCT116 cells assessed as increase in phosphorylated KAP1 expression after 24 hrs by Western blot analysis; type: cell-based
[21] = Toxicity in liver of mouse xenografted with human Capan1 cells assessed as pathological changes at 50 mg/kg, iv for every 2 days measured at 2 hrs post last dose by H and E staining based analysis; type: organism-based; conditions: in vivo
[22] = Prodrug release in mouse plasma xenografted with human HCT116 cells assessed as increase in 7-ethyl-10-hydroxycamptothecin level at 50 mg/kg, iv administered as single dose and measured after 30 mins to 72 hrs by LC-MS/MS analysis; type: ADME, organism-based; conditions: in vivo
[23] = Drug uptake in tumor of mouse xenografted with human HCT116 cells at 50 mg/kg, iv administered as single dose measured up to 72 hrs by LC-MS/MS analysis; type: ADME, organism-based, Neoplasm; conditions: in vivo
CAPAN-1 [24] = test: Antitumor activity against human Capan1 cells xenografted in mouse assessed as reduction in Ki67 expression at 50 mg/kg, iv for every 2 days measured at 2 hrs post last dose by Ki67 staining based immunohistochemical analysis; type: functional, organism-based
CAPAN-1 [25] = test: Antitumor activity against human Capan1 cells xenografted in mouse assessed as tumor cells with nuclear lysis at 36 mg/kg, iv for every 2 days measured at 2 hrs post last dose by H and E staining based analysis; type: functional, organism-based
[26] = Drug uptake in human HL7702 cells at 5 uM after 6 hrs in presence of HSP90 ATPase competitive inhibitor, NVP-AUY922 by confocal laser scanning microscopic analysis; type: ADME, cell-based; conditions: l02, 6 h

Structure (SMILES): CCc1c2c(nc3ccc(OC(=O)N4CCC(NC(=O)c5noc(-c6cc(C(C)C)c(O)cc6O)c5-c5ccc(CN6CCOCC6)cc5)CC4)cc13)-c1cc3c(c(=O)n1C2)COC(=O)[C@]3(O)CC
- inhibition (Heat shock protein HSP90 [1]): Dose-dependent effect
- inhibition [2]: inactive

Structure (SMILES): CCc1c2c(nc3ccc(O)cc13)-c1cc3c(c(=O)n1C2)COC(=O)[C@@]3(CC)OC(=O)CNC(=O)c1noc(-c2cc(C(C)C)c(O)cc2O)c1-c1ccc(CN2CCOCC2)cc1
- Activity [3]: 10%
- Drug metabolism [4]: Metabolite_Detected
- T/C (CAPAN-1 [5]): 1.86%
- Drug uptake [6]: Active
- degraded at 12 h, 50 µM [7]: 75%
- inhibition (Heat shock protein HSP90 [8]): inactive
- inhibition [9]: Dose-dependent effect
- inhibition (Mus musculus [10]): Active
- inhibition (Heat shock protein HSP90 [11]): inactive
- Activity [12]: Non-Toxic
- Retention_time [13]: 72 h
- Activity [14]: Non-Toxic
- Drug uptake [15]: Not Active
- Activity (CAPAN-1 [16]): Active
- Activity [17]: Toxic
- inhibition (Heat shock protein HSP90 [18]): inactive
- inhibition (Mus musculus [19]): Active
- inhibition [20]: Dose-dependent effect
- Activity [21]: Non-Toxic
- Drug metabolism [22]: Metabolite_Detected
- Drug uptake [23]: Active
- Activity (CAPAN-1 [24]): Active
- Activity (CAPAN-1 [25]): Active
- Drug uptake [26]: Not Active
